According to ChEMBL document CHEMBL4024707, “Using gene expression database to uncover biology functions of 1,4-disubstituted 1,2,3-triazole analogues synthesized via a copper (I)-catalyzed reaction” (Eur J Med Chem, 2017):
The source made the active and inactive calls. No cut-off for these calls is given here.

Tests used:
Hep 3B2 [1] = experiment: Cytotoxicity against human Hep3B cells after 6 days by MTT assay; format: functional, cell-based; settings: 144 h
HT-29 = experiment: Cytotoxicity against human HT-29 cells after 6 days by MTT assay; format: functional, cell-based; settings: HT-29, 144 h
Hep 3B2 [2] = experiment: Growth inhibition of human Hep3B cells at 30 uM after 48 hrs by MTT assay; format: functional, cell-based
Hep 3B2 [3] = experiment: Cell cycle arrest in human Hep3B cells assessed as accumulation at sub-G1 phase at 30 uM after 48 hrs by propidium iodide staining based flow cytometry (reference value: 3.7 +/- 0.4%); format: functional
Hep 3B2 [4] = experiment: Cell cycle arrest in human Hep3B cells assessed as accumulation at G0/G1 phase at 30 uM after 48 hrs by propidium iodide staining based flow cytometry (reference value: […] +/- […]%); format: functional
Hep 3B2 [5] = experiment: Cell cycle arrest in human Hep3B cells assessed as accumulation at S phase at 30 uM after 48 hrs by propidium iodide staining based flow cytometry (reference value: 23.8 +/- 1.9%); format: functional
Hep 3B2 [6] = experiment: Cell cycle arrest in human Hep3B cells assessed as accumulation at G2/M phase at 30 uM after 48 hrs by propidium iodide staining based flow cytometry (reference value: 36.6 +/- 2.9%); format: functional
Hep 3B2 [7] = experiment: Induction of apoptosis in human Hep3B cells assessed as ratio of cleaved caspase-3 to beta actin level at 30 uM after 48 hrs by Western blot analysis; format: functional
Hep 3B2 [8] = experiment: Induction of autophagy in human Hep3B cells assessed as ratio of LC3-2 to beta-actin level at 30 uM after 48 hrs by Western blot analysis; format: functional

| Compound | IC50 (Hep 3B2 [1]) [µM] | IC50 (HT-29) [µM] | other results |
| --- | --- | --- | --- |
| O=C1COc2ccc(F)cc2N1Cc1cn(Cc2ccccc2)nn1 | > 100 | > 100 |  |
| O=C1COc2ccccc2N1Cc1cn(Cc2ccc(Cl)cc2)nn1 | > 100 | 21.9 |  |
| O=C1COc2ccccc2N1Cc1cn(Cc2ccc3ccccc3n2)nn1 | > 100 | > 100 |  |
| O=C1COc2ccc(Cl)cc2N1Cc1cn(Cc2ccccc2)nn1 | 55.5 | 76.5 |  |
| CCOC(=O)c1ccc2c(c1)N(Cc1cn(Cc3ccccc3)nn1)C(=O)CO2 | 17.1 | 41.5 |  |
| COc1ccc2c(c1)OCC(=O)N2Cc1cn(Cc2ccccc2)nn1 | 9.2 | 9.3 |  |
| O=C1COc2ccccc2N1Cc1cn(C/C=C/c2ccccc2)nn1 | 38.9 | > 100 |  |
| O=C1COc2cccnc2N1Cc1cn(Cc2ccccc2)nn1 | 8.7 | 12.8 |  |
| Cc1ccc2c(c1)N(Cc1cn(Cc3ccccc3)nn1)C(=O)CO2 | > 100 | > 100 |  |
| O=C1COc2ccccc2N1Cc1cn(Cc2cccc3ccccc23)nn1 | 15.2 | 17 |  |
| Cc1ccc(Cn2cc(CN3C(=O)COc4ccccc43)nn2)cc1 | > 100 | 28.6 |  |
| COC(=O)Cn1cc(CN2C(=O)COc3ccccc32)nn1 | > 100 | 50.8 |  |
| O=C1C(c2ccccc2)Oc2ccccc2N1Cc1cn(Cc2ccccc2)nn1 (stereo unspecified) | > 100 | > 100 |  |
| CCCC1Oc2ccccc2N(Cc2cn(Cc3ccccc3)nn2)C1=O (stereo unspecified) | 61.8 | > 100 |  |
| O=C1COc2ccccc2N1Cc1cn(Cc2ccc([N+](=O)[O-])cc2)nn1 | 29.6 | 15.6 |  |
| O=C1COc2ccccc2N1Cc1cn(CCc2c[nH]c3ccccc23)nn1 | 70 | 15.2 |  |
| COc1ccc(Cn2cc(CN3C(=O)COc4ccccc43)nn2)cc1 | > 100 | 18.5 |  |
| CCC1Oc2ccccc2N(Cc2cn(Cc3ccccc3)nn2)C1=O (stereo unspecified) | > 100 | > 100 |  |
| COc1cc(/C=C/C(=O)CC(=O)/C=C/c2ccc(O)c(OC)c2)ccc1O [CURCUMIN] |  |  | growth inhibition (GI) (Hep 3B2 [2]): Active; Activity (Hep 3B2 [3]): 14.2%; Activity (Hep 3B2 [4]): 22.7%; Activity (Hep 3B2 [5]): 16.4%; Activity (Hep 3B2 [6]): 46.7%; Ratio (Hep 3B2 [7]): 1.2; Ratio (Hep 3B2 [8]): 6.6 |
| O=C1COc2ccccc2N1Cc1cn(CCc2ccccc2)nn1 | 66 | 48.8 |  |
| Cc1cc2c(cc1Cl)N(Cc1cn(Cc3ccccc3)nn1)C(=O)CO2 | > 100 | 19.6 |  |
| COc1ccc2c(c1)N(Cc1cn(Cc3ccccc3)nn1)C(=O)CO2 | > 100 | > 100 |  |
| Cc1ccc2c(c1)OCC(=O)N2Cc1cn(Cc2ccccc2)nn1 | > 100 | 54.9 |  |
| O=C1COc2ccccc2N1Cc1cn(Cc2ccccc2)nn1 | 84.5 | > 100 |  |
| CCOC(=O)Cn1cc(CN2C(=O)COc3ccccc32)nn1 | 19 | 36.4 |  |
| CCCCCCn1cc(CN2C(=O)COc3ccccc32)nn1 | > 100 | 34.4 |  |
| CC(C)(C)c1ccc(Cn2cc(CN3C(=O)COc4ccccc43)nn2)cc1 | 25.6 | 25.1 |  |
| O=C1COc2cc(F)ccc2N1Cc1cn(Cc2ccccc2)nn1 | 0.9 | > 100 |  |
